Measured values published in PubChem BioAssay (NCI).
≈ marks a conversion by molar mass, not a printed value.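 The compound was tested at five concentrations on cells cultured in 96-well plates, with a 48-hour exposure period. Abbreviation: GI50, concentration required for 50% inhibition of growth. Definition used: TGI = concentration required for complete inhibition of growth.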

Tests used:
Assay in all cases: NCI anticancer screen, dose series, 48 h
HT29 colon = system: HT29 colon
COLO 205 colon = system: COLO 205 colon
OVCAR-4 ovarian = system: OVCAR-4 ovarian
A549 NSCLC = system: A549 NSCLC
KM12 colon = system: KM12 colon
NCI/ADR-RES ovarian = system: NCI/ADR-RES ovarian
RXF 393 renal = system: RXF 393 renal
EKVX NSCLC = system: EKVX NSCLC
SW-620 colon = system: SW-620 colon
HOP-62 NSCLC = system: HOP-62 NSCLC

Row | SMILES | TGI (HT29 colon) | TGI (COLO 205 colon) | TGI (OVCAR-4 ovarian) | TGI (A549 NSCLC) | TGI (KM12 colon) | TGI (NCI/ADR-RES ovarian) | TGI (RXF 393 renal) | TGI (EKVX NSCLC) | TGI (SW-620 colon) | TGI (HOP-62 NSCLC) | GI50 (COLO 205 colon) | GI50 (A549 NSCLC) | GI50 (KM12 colon) | GI50 (EKVX NSCLC) | GI50 (HT29 colon) | GI50 (OVCAR-4 ovarian) | GI50 (HOP-62 NSCLC) | GI50 (NCI/ADR-RES ovarian) | GI50 (RXF 393 renal) | GI50 (SW-620 colon)
1 | COc1cc(C(C)O)c(S(=O)(=O)CC(C)O)nn1 (configuration not stated) | > 100 µM | > 100 µM | > 100 µM | > 100 µM | > 100 µM | > 100 µM | > 100 µM | > 100 µM | > 100 µM | – | – | – | – | – | – | – | – | – | – | –
2 | Cc1c2ccncc2cc2c1[nH]c1ccccc12 | 31.5 µM | 7.72 µM | 33.2 µM | 15.1 µM | 23.9 µM | > 56.4 µM | 7.35 µM | 16.3 µM | 4.68 µM | 21.8 µM | – | – | – | – | – | – | – | – | – | –
3 | CC(=O)OCC1OC(n2cc(F)c(=O)[nH]c2=O)C(NC(=O)OCc2ccccc2)C(OC(C)=O)C1OC(C)=O (configuration not stated) | > 100 µM | – | > 100 µM | > 100 µM | > 100 µM | > 100 µM | > 100 µM | > 100 µM | > 100 µM | > 100 µM | – | – | – | – | – | – | – | – | – | –
4 | O=C(N/N=C/c1cc(Cl)cc(Cl)c1[O-])c1ccccc1O.O=C(N/N=C/c1cc(Cl)cc(Cl)c1[O-])c1ccccc1O.[Co+2] | 17.4 µM | 18.3 µM | 7.07 µM | 13.2 µM | 19.1 µM | – | 8.46 µM | 14.8 µM | 16.8 µM | 5.07 µM | 3.8 µM | 0.532 µM | 0.963 µM | 1.02 µM | – | – | – | – | – | –
5 | CCP(=O)(CC)C(Cl)Cl | > 100 µM | > 100 µM | > 100 µM | > 100 µM | – | > 100 µM | – | – | > 100 µM | > 100 µM | – | – | – | – | – | – | – | – | – | –
6 | O=C1CC2CC3OC3[C@H]3c4cc5c(cc4C(=O)N1C23)OCO5 (some centres not stated) | > 100 µM | > 100 µM | > 100 µM | > 100 µM | > 100 µM | – | – | > 100 µM | > 100 µM | > 100 µM | – | – | – | – | – | – | – | – | – | –
7 | Nc1[nH]nc(Nc2ccc(Cl)cc2)c1P(=O)(c1ccccc1)c1ccccc1 | 65.2 µM | > 100 µM | 80.8 µM | > 100 µM | 37.5 µM | 52.3 µM | 53.9 µM | > 100 µM | > 100 µM | 49.1 µM | – | – | – | – | – | – | – | – | – | –
8 | CC(=O)c1c(C)nc(SSc2nc(C)c(C(C)=O)c(-c3ccc(Cl)cc3)c2C#N)c(C#N)c1-c1ccc(Cl)cc1 | > 150 µg/mL | > 150 µg/mL | > 150 µg/mL | > 150 µg/mL | > 150 µg/mL | > 150 µg/mL | 78.4 µg/mL | > 150 µg/mL | > 150 µg/mL | > 150 µg/mL | > 150 µg/mL | 73 µg/mL | 133 µg/mL | 145 µg/mL | > 150 µg/mL | 62.6 µg/mL (≈ 104 µM) | 47.5 µg/mL (≈ 78.7 µM) | 118 µg/mL (≈ 196 µM) | 22.5 µg/mL (≈ 37.2 µM) | 69.4 µg/mL (≈ 115 µM)
9 | CC(=O)Nc1ccc(C(=O)NN2C(=O)C(Cl)/C2=C/c2ccco2)cc1 (configuration not stated) | > 100 µM | > 100 µM | – | > 100 µM | > 100 µM | – | – | – | > 100 µM | > 100 µM | – | – | – | – | – | – | – | – | – | –
